These results are taken from patent US20230338316A1, “ABBAPOLINS AS INHIBITORS AND DEGRADERS OF POLO-LIKE KINASES” (UNIVERSITY OF SOUTH CAROLINA, priority 2022, published 2023).

In series [1] the test system is PC3 prostate cancer cells. Nature of the series: MTT cell viability assay, PC3. It counts as cell-based. The note with it: MTT, 72 hours. On the procedure: PC3 prostate cancer cells were maintained in DMEM (Invitrogen™, Carlsebad, CA) supplemented with 10% FBS or Corning® Nu-serum™(BD™ Biosciences, Franklin Lakes, NJ) and 1% penicillin/streptomycin (Invitrogen™) in a humidified incubator and 5% CO2 at 37° C.
(§1) Exponentially growing cells were plated in 96-well dishes. Dose response curves were used to treat cells for 72 hours with inhibitors. Following the three-day treatment, cell viability was measured using the MTT (3-(4,5-dimethylthiazol-2-yl)-2,5-diphenyltetrazolium bromide) colorimetric assay. Cells were incubated for 3 hours with MTT allowing viable cells to metabolize the tetrazolium dye to a purple colored solution. Absorbance measurements (595 nm) were quantified using a DTX 880 plate reader and IC50 values were generated for FLIPs.
For orientation: Tetrazolium assays rely on reduction of a dye to a coloured formazan, in cell work by metabolically active cells.

In series [2] the test system is HeLa cervical cancer cells. Nature of the series: MTT cell viability assay, HeLa. The note with it: p53 MT, PTEN WT. It counts as cell-based.
Text: HeLa cervical cancer cells were obtained from ATCC (Manassas, VA). Histone H2B GFP-labeled HeLa cells (HeLa-H2B-GFP) were kindly provided by Dr. Geoffrey Wahl (Gene Expression Laboratory, Salk Institute), and were confirmed as >95% GFP positive by FACS (data not shown) but were not otherwise authenticated. Cells were maintained in DMEM (Invitrogen™, Carlsebad, CA) supplemented with 10% FBS or Corning® Nu-serum™ (BD™ Biosciences, Franklin Lakes, NJ) and 1% penicillin/streptomycin (Invitrogen™) in a humidified incubator and 5% CO2 at 37° C.
as §1

Series [3] is described as follows: Pharmacokinetics after oral gavage. It counts as in vivo, swiss webster mice. As to the method:
FIG. 3 graphically illustrates pharmacokinetics of SCCP ID No. 6359 in swiss webster mice at a dosage of 50 mg/kg.
These reasonable PK values of the lead abbapolin compounds tested in vivo are promising and indicate optimization will lead to further improvements.

A further series deals with UO-31. Nature of the series: Single dose cell viability assay, UO-31. It is filed as cell-based. The settings on record: UO-31 (Renal), single dose 10 μM. On the procedure:
Lead abbapolin compounds were tested in multiple cancer cell lines, including non-small cell lung cancer (NSCLC) cells, melanoma cells, colon cancer cells, central nervous system (CNS) cancer cells, prostate cancer cells, renal cancer cells, and breast cancer cells. Each of these cancer cells lines were sensitive to the lead abbapolin compounds in a cell viability assay, including 6184 (Table 3), 6277 (Table 4), 6279 (Table 5), 6355 (Table 6), 6359 (Table 7), 6369 (Table 8), and 6421 (Table 9).

The next series deals with PLK1 (Homo sapiens, UniProt P53350). Nature of the series: PLK1 degradation in HeLa cells. It is filed as cell-based. On the set-up: endogenous in cells. The settings on record: HeLa cell line, 24, 48 and 72 hours. As to the method: For example, PC3 cells were treated with varying dosages of abbapolin 6369, and percent of PLK1 degradation was measured at 24 hours (FIGS. 8A-8B). HeLa cells were treated with 25 μM abbapolin 6369, and time points shown in the assay were 24 hours, 48 hours, and 72 hours (FIGS. 9A-9B). PC3 cells were treated with varying dosages of abbapolin 6329, and percent of PLK1 degradation was measured at 24 hours (FIGS. […]). HeLa cells were treated with varying dosages of abbapolin 6329, and time points shown in the assay were 24 hours, 48 hours, and 72 hours (FIGS. 11A-11B).
Sequence of PLK1 (P53350 whole entry): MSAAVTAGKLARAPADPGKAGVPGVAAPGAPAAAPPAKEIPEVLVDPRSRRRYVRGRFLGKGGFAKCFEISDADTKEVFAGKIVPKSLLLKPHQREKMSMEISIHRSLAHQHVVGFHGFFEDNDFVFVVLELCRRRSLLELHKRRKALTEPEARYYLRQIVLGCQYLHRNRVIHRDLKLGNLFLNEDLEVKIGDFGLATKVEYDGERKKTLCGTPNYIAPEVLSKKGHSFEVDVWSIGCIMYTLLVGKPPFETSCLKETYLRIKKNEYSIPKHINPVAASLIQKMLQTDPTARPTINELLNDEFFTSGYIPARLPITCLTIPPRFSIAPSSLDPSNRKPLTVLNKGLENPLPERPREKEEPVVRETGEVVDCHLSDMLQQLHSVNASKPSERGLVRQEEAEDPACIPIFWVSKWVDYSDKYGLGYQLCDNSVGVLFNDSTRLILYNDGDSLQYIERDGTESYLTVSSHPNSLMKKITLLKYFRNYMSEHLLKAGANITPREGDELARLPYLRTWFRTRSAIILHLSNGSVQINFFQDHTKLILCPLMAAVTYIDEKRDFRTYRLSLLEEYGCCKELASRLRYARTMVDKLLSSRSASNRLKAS

On to “3-(4-octylbenzamido)phenyl phosphate [compound 6369]”, for which the results for the IC50 in series [1] and in series [2] were 2300 ± 900 nM and 17.5 ± 2.9 µM, respectively. For the same substance, the blood levels result in series [3] (50 mg/kg by oral gavage) is “measurable blood levels”. In addition, the “oral absorption / PK” value in series [3] (mouse, in vivo, po) is given as “low oral absorption”. For the same substance, in the series on UO-31, the “Cells Remaining (%)” value turned out to be 46.64%. Also, at PLK1, the PLK1 degradation result is “degradation of PLK1”.

By IC50 is commonly meant the concentration at which inhibition is half-maximal.
